Results reported in patent US7282507B2, “Indole derivatives as selective androgen receptor modulators (SARMS)” (Janssen Pharmaceutica N.V., priority 2004, dated 2007).

Target: T1, androgen receptor (AdEasy+rAR, L929 cells) (Rattus norvegicus, UniProt P15207)
T1 construct: expressed in transfected cells; host or cells: L929 cells transduced with adenovirus AdEasy+rAR
T1 sequence (P15207 1-902): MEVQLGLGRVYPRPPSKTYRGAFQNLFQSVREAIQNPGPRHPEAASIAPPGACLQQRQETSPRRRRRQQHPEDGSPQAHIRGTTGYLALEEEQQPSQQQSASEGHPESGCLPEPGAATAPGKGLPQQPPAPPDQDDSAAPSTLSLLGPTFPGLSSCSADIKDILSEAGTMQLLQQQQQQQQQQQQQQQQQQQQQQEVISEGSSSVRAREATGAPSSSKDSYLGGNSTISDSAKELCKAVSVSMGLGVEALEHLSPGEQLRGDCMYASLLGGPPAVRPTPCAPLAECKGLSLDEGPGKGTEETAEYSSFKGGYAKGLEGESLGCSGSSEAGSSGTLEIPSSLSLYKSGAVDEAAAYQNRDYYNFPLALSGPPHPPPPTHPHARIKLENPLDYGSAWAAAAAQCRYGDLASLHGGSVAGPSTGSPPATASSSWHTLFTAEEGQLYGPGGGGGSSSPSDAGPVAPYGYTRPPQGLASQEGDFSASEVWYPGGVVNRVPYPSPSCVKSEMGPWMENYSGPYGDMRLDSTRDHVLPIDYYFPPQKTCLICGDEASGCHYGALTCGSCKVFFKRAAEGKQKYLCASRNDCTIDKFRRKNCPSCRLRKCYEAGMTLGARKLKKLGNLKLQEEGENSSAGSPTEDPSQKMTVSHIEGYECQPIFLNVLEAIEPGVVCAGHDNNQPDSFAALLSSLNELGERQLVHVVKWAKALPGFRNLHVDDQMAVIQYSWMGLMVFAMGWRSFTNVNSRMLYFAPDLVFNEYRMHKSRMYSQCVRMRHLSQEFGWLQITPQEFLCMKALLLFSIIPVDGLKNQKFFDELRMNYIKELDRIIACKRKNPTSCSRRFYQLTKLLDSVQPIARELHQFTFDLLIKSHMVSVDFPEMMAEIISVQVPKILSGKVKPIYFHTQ
Assay: L929 Androgen Receptor Functional Assay, Adenovirus Transduction
Assay type: cell-based
Conditions: agonist testing, 3000 nM
Experimental: L929 cells were plated in 96-well plates at 20,000 cells per well, in DMEM/F12 (GIBCO) containing 10% (v/v) charcoal-treated fetal bovine serum (Hyclone) and lacking phenol red. The plates were then incubated overnight at 37° C. in 5% (v/v) humidified CO2.
Test compound dilutions were prepared in 100% (v/v) DMSO, if necessary. Each dilution was made to 1250× the final desired assay concentration.
First, 2 mL of DMEM/F12 lacking phenol red was pipetted into the wells of a 2-mL 96-well assay block. Next, 4 μL of the 1250× test compound dilutions were pipetted into each well of the assay block. The mixtures within the well were then carefully mixed by pipette.
In a 15 mL or 50 mL sterile centrifuge tube, a 2.5 nM (2.5×) dilution of R1881 (methyl-trienolone) in DMEM/F12 lacking phenol red was prepared.
In a second 15 mL or 50 mL centrifuge tube a solution containing an equal volume of DMEM to the first and an equal volume of 100% (v/v) DMSO to the volume of R1881 used in the first tube was prepared.
In a 15 mL or 50 mL sterile centrifuge tube, a dilution in DMEM/F12 of the adenovirus AdEasy+rAR at an moi of 1:500 per well was prepared.
The medium was removed from the 96-well plates by inversion and dried, inverted, very briefly. As soon as possible after medium removal, 40 μL of the diluted unlabeled test compound was added to each well, in duplicate. To each well designated for antagonist testing was added 40 μL of the 2.5 nM R1881 dilution to the wells for antagonist testing. To each well designated for agonist testing was added 40 μL of the DMSO dilution. Then 20 μL of the diluted adenovirus were added to all wells. The plates were incubated for 48 hours at 37° C. in 5% (v/v) humidified CO2.
To each well was added 100 μL of Steady-Glo luciferase assay substrate (Promega) and the plates were placed on a rotary shaker for 1 min. The plates were then incubated at room temperature in the dark for one hour. The contents of each well were then transferred to a white microtiter plate (Packard) and read on a Luminoskan Ascent (Thermo Lab Systems).
L929 AR percent activity was determined by testing dilutions of the test compound using a concentration of 3000 nM unless otherwise noted. L929 percent inhibition was determined by testing dilutions of the test compound using a concentration of 3000 nM. […] Luciferase activity per well were measured and EC50s and IC50s determined by linear regression.

`CC(O)(CSc1ccc(N)cc1)c1cc2cc(Cl)c(C(F)(F)F)cc2n1S(C)(=O)=O` (racemic) [Compound 125] was tested. Which “% Activity, L929 androgen receptor functional assay” value did it give?
The value was −5%.

`CC(O)(CSCC(F)(F)F)c1cc2cc(C#N)c(C(F)(F)F)cc2[nH]1` (racemic) [Compound 211] was tested. Which “% Activity, L929 androgen receptor functional assay” value did it give?
Its value is −1%.

Test system: testosterone-enhanced ventral prostate and seminal vesicle weights
Assay: Ventral Prostate and Seminal Vesicle Weight in vivo Assay; further: key: 'active' if the non weight adjusted prostate weight was ≦40 mg or the % Inhibition prostate weight, body weight adjusted was ≧40% @ 2 mg/day dosage; ID50's, if determined, of ≦15 mg/day also indicated an 'active' compound; listed herein as 'inactive' as they did not meet the specified criteria defined above
Parameters: species or system rat
Conditions: immature castrated male Sprague Dawley rats, once daily for five days, usually orally 40 mg/kg, with testosterone propionate 2 mg/kg s.c.
Experimental: Immature (approximately 50 g) castrated male Sprague Dawley rats (Charles River) were treated once daily for five days with test compound (usually given orally at 40 mg/kg in a volume of 0.3 mL, in 30% cyclodextrin or 0.5% methylcellulose vehicle) and with testosterone propionate (given subcutaneously by injection at the nape of the neck at 2 mg/kg, in a volume of 0.1 mL in sesame oil). On the sixth day, the rats were euthanized by asphyxiation in carbon dioxide. Ventral prosatates and seminal vesicles were removed and their wet weights determined.
A test compound was said to be “active” if the non weight adjusted prostate weight was ≦40 mg or the % Inhibition prostate weight, body weight adjusted was ≧40% @ 2 mg/day dosage.

With `CC(O)(C[S+]([O-])CC(F)(F)F)c1cc2cc([N+](=O)[O-])c(C(F)(F)F)cc2[nH]1` (mixture of isomers) [Compound 205] as the compound, how does the “active / inactive: inhibition of testosterone-enhanced prostate weight” value (shortened to “active / inactive: inhibition”) read?
The value was “active”.

With `CC[S+]([O-])CC(C)(O)c1[nH]c2cc(C(F)(F)F)c(C#N)cc2c1C` (mixture of isomers) [Compound 245] as the compound, how does the “active / inactive: inhibition” value read?
Its value is “inactive”.

With `CC[S+]([O-])CC(C)(O)c1[nH]c2cc(C(F)(F)F)c(C#N)cc2c1C` (mixture of isomers) [Compound 319] as the compound, how does the “active / inactive: inhibition” value read?
The value was “active”.

For `CCSCC(C)(O)c1cc2nc(C#N)ccc2[nH]1` (racemic) [Compound 6], which “active / inactive: inhibition” value is on record?
Its value is “inactive”.

Which “active / inactive: inhibition” value does the source give for `CCSCC(C)(O)c1cc2cc([N+](=O)[O-])c(C(F)(F)F)cc2o1` (racemic) [Compound 9] here?
Its value is “inactive”.

Which “active / inactive: inhibition” value does the source give for `OC1(c2cc3cc(Cl)c(C(F)(F)F)cc3[nH]2)CCSC1` (racemic) [Compound 14] here?
The value was “inactive”.

For `N#Cc1cc2cc(C3(O)CCSC3)[nH]c2cc1C(F)(F)F` (racemic) [Compound 15], which “active / inactive: inhibition” value is on record?
Its value is “inactive”.

`O=[N+]([O-])c1cc2cc(C3(O)CCSC3)[nH]c2cc1C(F)(F)F` (racemic) [Compound 18] was tested. Which “active / inactive: inhibition” value did it give?
Its value is “inactive”.

For `CCSCC(C)(O)c1cc2cc(Cl)c(C(F)(F)F)cc2n1S(C)(=O)=O` (racemic) [Compound 146], which “active / inactive: inhibition” value is on record?
The value was “inactive”.

How did the “active / inactive: inhibition” value turn out when `CCSCC(C)(O)c1cc2cc([N+](=O)[O-])c(C(F)(F)F)cc2[nH]1` (racemic) [Compound 153] was run?
Its value is “inactive”.

How did the “active / inactive: inhibition” value turn out when `CCSCC(O)(CC)c1cc2cc(Cl)c(C(F)(F)F)cc2[nH]1` (racemic) [Compound 181] was run?
Its value is “active”.

Which “active / inactive: inhibition” value does the source give for `CC(O)(CSCc1ccccn1)c1cc2cc([N+](=O)[O-])c(C(F)(F)F)cc2[nH]1` (racemic) [Compound 204] here?
Its value is “inactive”.

How did the “active / inactive: inhibition” value turn out when `CCSCC(C)(O)c1cc2cc(C#N)c(Cl)cc2[nH]1` (racemic) [Compound 224] was run?
Its value is “active”.

`CCSCC(C)(O)c1cc2cc(C#N)c(C(F)(F)F)cc2n1CC(F)(F)F` (racemic) [Compound 237] was tested. Which “active / inactive: inhibition” value did it give?
The value was “active”.

With `CCSCC(C)(O)c1cc2cc(C#N)c(C(F)(F)F)cc2n1CC` (racemic) [Compound 243] as the compound, how does the “active / inactive: inhibition” value read?
Its value is “active”.

`CCSCC(C)(O)c1cc2cc(C#N)c(C(F)(F)F)cc2n1COC` (racemic) [Compound 322] was tested. Which “active / inactive: inhibition” value did it give?
Its value is “inactive”.

With `CCSCC(C)(O)c1cc2cc(C#N)c(C(F)(F)F)cc2n1CC#N` (racemic) [Compound 323] as the compound, how does the “active / inactive: inhibition” value read?
The value was “inactive”.

For `CCSCC(C)(O)c1[nH]c2cc(C(F)(F)F)c(C#N)cc2c1I` (racemic) [Compound 324], which “active / inactive: inhibition” value is on record?
The value was “inactive”.

With `CCSCC(C)(O)c1[nH]c2cc(C(F)(F)F)c(C#N)cc2c1C#C[Si](C)(C)C` (racemic) [Compound 325] as the compound, how does the “active / inactive: inhibition” value read?
Its value is “inactive”.

For `C#Cc1c(C(C)(O)CSCC)[nH]c2cc(C(F)(F)F)c(C#N)cc12` (racemic) [Compound 326], which “active / inactive: inhibition” value is on record?
The value was “inactive”.

How did the “active / inactive: inhibition” value turn out when `CCSCC(O)(c1cc2cc(C#N)c(C(F)(F)F)cc2[nH]1)C(F)(F)F` (racemic) [Compound 327] was run?
Its value is “active”.

`CC(O)(c1[nH]c2cc(C(F)(F)F)c(C#N)cc2c1I)C(F)(F)F` (racemic) [Compound 330] was tested. Which “active / inactive: inhibition” value did it give?
Its value is “active”.

Which “active / inactive: inhibition” value does the source give for `CC(O)(c1cc2cc(C#N)c(C(F)(F)F)cc2n1CC#N)C(F)(F)F` (racemic) [Compound 331] here?
The value was “active”.

With `COCn1c(C(C)(O)C(F)(F)F)cc2cc(C#N)c(C(F)(F)F)cc21` (racemic) [Compound 332] as the compound, how does the “active / inactive: inhibition” value read?
The value was “active”.

How did the “active / inactive: inhibition” value turn out when `CSCn1c(C(C)(O)C(F)(F)F)cc2cc(C#N)c(C(F)(F)F)cc21` (racemic) [Compound 333] was run?
The value was “active”.

Which “active / inactive: inhibition” value does the source give for `CCSCC(C)(O)c1[nH]c2cc(C(F)(F)F)c(C#N)cc2c1CC` (racemic) [Compound 344] here?
Its value is “active”.

Which “active / inactive: inhibition” value does the source give for `CCSCC(C)(O)c1cc2cc(Cl)ccc2[nH]1` (racemic) [Compound 353] here?
The value was “inactive”.

How did the “active / inactive: inhibition” value turn out when `CCSCC(C)(O)c1cc2cc(C#N)ccc2[nH]1` (racemic) [Compound 403] was run?
Its value is “inactive”.

Which “active / inactive: inhibition” value does the source give for `CCS(=O)(=O)CC(C)(O)c1cc2cc(Cl)c(C(F)(F)F)cc2[nH]1` (racemic) [Compound 404] here?
The value was “active”.

How did the “active / inactive: inhibition” value turn out when `CCS(=O)(=O)CC(C)(O)c1cc2cc(C#N)c(C(F)(F)F)cc2[nH]1` (racemic) [Compound 407] was run?
Its value is “inactive”.

`CSCC(O)c1cc2cc(C#N)c(C(F)(F)F)cc2[nH]1` (racemic) [Compound 408] was tested. Which “active / inactive: inhibition” value did it give?
Its value is “inactive”.

How did the “active / inactive: inhibition” value turn out when `CCSCC(O)c1cc2cc(C#N)c(C(F)(F)F)cc2[nH]1` (racemic) [Compound 410] was run?
The value was “inactive”.

`CCSCC(O)c1[nH]c2cc(C(F)(F)F)c(C#N)cc2c1I` (racemic) [Compound 411] was tested. Which “active / inactive: inhibition” value did it give?
The value was “inactive”.

`CCS(=O)(=O)CC(O)c1cc2cc(C#N)c(C(F)(F)F)cc2[nH]1` (racemic) [Compound 412] was tested. Which “active / inactive: inhibition” value did it give?
Its value is “inactive”.

Which “active / inactive: inhibition” value does the source give for `CCSCC(O)c1[nH]c2cc(C(F)(F)F)c(C#N)cc2c1Br` (racemic) [Compound 413] here?
The value was “inactive”.

`CCSCC(C)(O)c1cc2cc(C)c(C(F)(F)F)cc2[nH]1` (racemic) [Compound 414] was tested. Which “active / inactive: inhibition” value did it give?
Its value is “inactive”.

For `CCSCC(C)(O)c1cc2cc(C#N)c(C)c(I)c2[nH]1` (racemic) [Compound 415], which “active / inactive: inhibition” value is on record?
The value was “inactive”.

With `CCSCC(C)(O)c1cc2cc(C#N)c(OC)cc2[nH]1` (racemic) [Compound 445] as the compound, how does the “active / inactive: inhibition” value read?
The value was “inactive”.
